From patent US20140005163A1 (NOVARTIS AG, priority 2010, published 2014)

Experiment: In vivo penetration into dermis of topically treated pigs (skin PK)
Conditions: pig dermis in vivo, topical 0.5% in PG/EtOH 7:3; mean ± SEM, n=8
Procedure: Small skin areas (4 cm^2) on the dorsolateral back of young domestic pigs were treated topically with 0.5% solutions at different time intervals (1-8 hrs) prior to drug level determination. Skin flaps with the treated sites in the centre were dissected and removed. The skin flaps were spread, and heated metal blocks placed on the test sites for 1 minute to induce separation of epidermis from the dermis. After removal of the loosened epidermal sheets, 1 mm thick dermal sheets were prepared from the treated, de-epidermized skin with a dermatome. From these sheets 6 mm punch samples (6 mm Ø) were collected and analysed for test compound concentration by LC/MS. The procedure described was done with careful avoidance of contamination of the dermal samples with compound attached superficially to the epidermis.
AUC means area under the curve, and is a well known term in clinical pharmacology. The AUC value describes the total uptake of the agent in a time interval.

Compound | AUC (0-8 h) in dermis [µg·h/g]
Cc1nn(C)cc1-n1c(=O)n(C)c2cnc3ccc(-c4cncc(OC(C)C)c4)cc3c21 [Example 58.1, 1-(1,3-Dimethyl-1H-pyrazol-4-yl)-8-(5-isopropoxy-pyridin-3-yl)-3-methyl-1,3-dihydro-imidazo[4,5-c]quinolin-2-one] | 3.7 ± 1.3
Cc1ncc(-c2ccc3ncc4c(c3c2)n(-c2cn(C)nc2C)c(=O)n4C)cc1OC(C)C [Example 84.1, 1-(1,3-Dimethyl-1H-pyrazol-4-yl)-8-(5-isopropoxy-6-methyl-pyridin-3-yl)-3-methyl-1,3-dihydro-imidazo[4,5-c]quinolin-2-one] | 2.8 ± 1.0
